In brackets after ≈: the same amount, converted by molar mass. Bridge positions count the residues as written; N and C are the ends. Square brackets hold non-standard residues; d marks the D form. Side chains are listed from the residue outwards. Peptide text beside a SMILES is read from it. * marks the point of attachment. Tetradecanoyl(3R-OH) = CCCCCCCCCCC[C@@H](O)CC(=O)*; Asp(3S-OH) = N[C@H](C(=O)O)[C@H](O)C(=O)O; Thr(4-Cl) = N[C@H](C(=O)O)[C@H](O)CCl; aThr = C[C@H](O)[C@H](N)C(=O)O; dDab = NCC[C@@H](N)C(=O)O; NHCH2CH2NMe2 = CN(C)CCN*; Dab = NCC[C@H](N)C(=O)O; Dhb = C/C=C(\N)C(=O)O; X1 = CCN(CC)CCN*; NHcPr = C1CC1N*
Columns and labels:
Mus musculus [1] = assay: Compound was evaluated in vivo for its effective dose against Murine candidiasis; assay type: functional
Mus musculus [2] = assay: (§1) Compound was evaluated in vivo for its effective dose against cryptococosis; assay type: functional
Mus musculus [3] = species: Mus musculus; assay: Maximum tolerated dose against tail vein irritation determined by dose elevation study; assay type: functional
[4] = The compound was tested for toxicity in tail vein irritation model; No; settings: mouse
Aspergillus fumigatus = assay: Minimum inhibitory concentration against Aspergillus fumigatus; assay type: functional
Candida albicans = assay: Minimum inhibitory concentration against Candida albicans.; assay type: functional
[5] = The compound was tested for toxicity in tail vein irritation model; Yes; settings: mouse
Cryptococcus neoformans [6] = assay: Minimum inhibitory concentration against Cryptococcus neoformans.
Cryptococcus neoformans [7] = assay: as §1; assay type: functional

MIC (Aspergillus fumigatus) [µg/mL]	MIC (Candida albicans) [µg/mL]	MIC (Cryptococcus neoformans [6]) [µg/mL]	Structure (SMILES)	ED50 (Mus musculus [1]) [mg/kg]	ED50 (Mus musculus [2]) [mg/kg]	Dose elevation (Mus musculus [3]) [mg/kg]	Toxicity [4]	Toxicity [5]	ED50 (Cryptococcus neoformans [7]) [mg/kg]
–	–	–	C/C=C1\NC(=O)[C@H]([C@H](C)O)NC(=O)[C@H](CCN)NC(=O)[C@H](CCCCN)NC(=O)[C@H](CC(=O)NCCN(C)C)NC(=O)[C@@H](CCN)NC(=O)[C@@H](NC(=O)C[C@H](O)CCCCCCCCCCC)COC(=O)[C@H]([C@H](O)CCl)NC(=O)[C@H]([C@H](O)C(=O)O)NC1=O ({Tetradecanoyl(3R-OH)}-S[dDab]D(NHCH2CH2NMe2)K[Dab][aThr][Dhb][Asp(3S-OH)][Thr(4-Cl)]; ester 1-C)	< 5	2.5	50	Not toxic	–	–
–	–	–	C/C=C1\NC(=O)[C@H]([C@H](C)O)NC(=O)[C@H](CCN)NC(=O)[C@H](CCCCN)NC(=O)[C@H](CC(=O)NC2CC2)NC(=O)[C@@H](CCN)NC(=O)[C@@H](NC(=O)C[C@H](O)CCCCCCCCCCC)COC(=O)[C@H]([C@H](O)CCl)NC(=O)[C@H]([C@H](O)C(=O)O)NC1=O ({Tetradecanoyl(3R-OH)}-S[dDab]D(NHcPr)K[Dab][aThr][Dhb][Asp(3S-OH)][Thr(4-Cl)]; ester 1-C)	< 5	2.9	50	Not toxic	–	–
> 20	0.312 (≈ 0.244 µM)	< 0.01	C/C=C1\NC(=O)[C@H]([C@H](C)O)NC(=O)[C@H](CCN)NC(=O)[C@H](CCCCN)NC(=O)[C@H](CC(=O)NC(C)(C)CC)NC(=O)[C@@H](CCN)NC(=O)[C@@H](NC(=O)C[C@H](O)CCCCCCCCCCC)COC(=O)[C@H]([C@H](O)CCl)NC(=O)[C@H]([C@H](O)C(=O)O)NC1=O	–	–	–	–	Active	–
–	–	–	C/C=C1\NC(=O)[C@H]([C@H](C)O)NC(=O)[C@H](CCNC(=O)OCOC(=O)C(C)(C)C)NC(=O)[C@H](CCCCNC(=O)OCOC(=O)C(C)(C)C)NC(=O)[C@H](CC(=O)NCC(=O)OC)NC(=O)[C@@H](CCNC(=O)OCOC(=O)C(C)(C)C)NC(=O)[C@@H](NC(=O)C[C@H](O)CCCCCCCCCCC)COC(=O)[C@H]([C@H](O)CCl)NC(=O)[C@H]([C@H](O)C(=O)O)NC1=O	< 5	> 5	125	Not toxic	–	–
–	–	–	C/C=C1\NC(=O)[C@H]([C@H](C)O)NC(=O)[C@H](CCNC(=O)OCOC(=O)C(C)C)NC(=O)[C@H](CCCCNC(=O)OCOC(=O)C(C)C)NC(=O)[C@H](CC(=O)NC2CC2)NC(=O)[C@@H](CCNC(=O)OCOC(=O)C(C)C)NC(=O)[C@@H](NC(=O)C[C@H](O)CCCCCCCCCCC)COC(=O)[C@H]([C@H](O)CCl)NC(=O)[C@H]([C@H](O)C(=O)O)NC1=O	< 5	0.56	125	Not toxic	–	–
20 (≈ 12.2 µM)	20 (≈ 12.2 µM)	20 (≈ 12.2 µM)	C/C=C1\NC(=O)[C@H]([C@H](C)O)NC(=O)[C@H](CCNC(=O)OCOC(=O)C(C)C)NC(=O)[C@H](CCCCNC(=O)OCOC(=O)C(C)C)NC(=O)[C@H](CC(N)=O)NC(=O)[C@@H](CCNC(=O)OCOC(=O)C(C)C)NC(=O)[C@@H](NC(=O)C[C@H](O)CCCCCCCCCCC)COC(=O)[C@H]([C@H](O)CCl)NC(=O)[C@H]([C@H](O)C(=O)O)NC1=O	–	–	–	Not toxic	–	–
–	–	–	C/C=C1\NC(=O)[C@H]([C@H](C)O)NC(=O)[C@H](CCN)NC(=O)[C@H](CCCCN)NC(=O)[C@H](CC(=O)NCC(=O)OC)NC(=O)[C@@H](CCN)NC(=O)[C@@H](NC(=O)C[C@H](O)CCCCCCCCCCC)COC(=O)[C@H]([C@H](O)CCl)NC(=O)[C@H]([C@H](O)C(=O)O)NC1=O ({Tetradecanoyl(3R-OH)}-S[dDab]D([Gly-OMe])K[Dab][aThr][Dhb][Asp(3S-OH)][Thr(4-Cl)]; ester 1-C)	< 5	2.9	<50	Not toxic	–	–
–	–	–	C/C=C1\NC(=O)[C@H]([C@H](C)O)NC(=O)[C@H](CCNC(=O)OCOC(=O)C(C)(C)C)NC(=O)[C@H](CCCCNC(=O)OCOC(=O)C(C)(C)C)NC(=O)[C@H](CC(=O)NCCN(C)C)NC(=O)[C@@H](CCNC(=O)OCOC(=O)C(C)(C)C)NC(=O)[C@@H](NC(=O)C[C@H](O)CCCCCCCCCCC)COC(=O)[C@H]([C@H](O)CCl)NC(=O)[C@H]([C@H](O)C(=O)O)NC1=O	< 5	0.44	–	Not toxic	–	–
–	–	–	C/C=C1\NC(=O)[C@H]([C@H](C)O)NC(=O)[C@H](CCNC(=O)OCOC(=O)C(C)C)NC(=O)[C@H](CCCCNC(=O)OCOC(=O)C(C)C)NC(=O)[C@H](CC(=O)NCC(=O)OC)NC(=O)[C@@H](CCNC(=O)OCOC(=O)C(C)C)NC(=O)[C@@H](NC(=O)C[C@H](O)CCCCCCCCCCC)COC(=O)[C@H]([C@H](O)CCl)NC(=O)[C@H]([C@H](O)C(=O)O)NC1=O	< 5	–	125	Not toxic	–	–
20 (≈ 11.5 µM)	20 (≈ 11.5 µM)	20 (≈ 11.5 µM)	C/C=C1\NC(=O)[C@H]([C@H](C)O)NC(=O)[C@H](CCNC(=O)OCOC(=O)C(C)C)NC(=O)[C@H](CCCCNC(=O)OCOC(=O)C(C)C)NC(=O)[C@H](CC(=O)NCCN(CC)CC)NC(=O)[C@@H](CCNC(=O)OCOC(=O)C(C)C)NC(=O)[C@@H](NC(=O)C[C@H](O)CCCCCCCCCCC)COC(=O)[C@H]([C@H](O)CCl)NC(=O)[C@H]([C@H](O)C(=O)O)NC1=O	–	–	–	Not toxic	–	–
–	–	–	C/C=C1\NC(=O)[C@H]([C@H](C)O)NC(=O)[C@H](CCNC(=O)OCOC(=O)C(C)C)NC(=O)[C@H](CCCCNC(=O)OCOC(=O)C(C)C)NC(=O)[C@H](CC(=O)NCCN(C)C)NC(=O)[C@@H](CCNC(=O)OCOC(=O)C(C)C)NC(=O)[C@@H](NC(=O)C[C@H](O)CCCCCCCCCCC)COC(=O)[C@H]([C@H](O)CCl)NC(=O)[C@H]([C@H](O)C(=O)O)NC1=O	6.6	–	125	Not toxic	–	–
10 (≈ 7.66 µM)	10 (≈ 7.66 µM)	< 0.01	C/C=C1\NC(=O)[C@H]([C@H](C)O)NC(=O)[C@H](CCN)NC(=O)[C@H](CCCCN)NC(=O)[C@H](CC(=O)NCCN(CC)CC)NC(=O)[C@@H](CCN)NC(=O)[C@@H](NC(=O)C[C@H](O)CCCCCCCCCCC)COC(=O)[C@H]([C@H](O)CCl)NC(=O)[C@H]([C@H](O)C(=O)O)NC1=O ({Tetradecanoyl(3R-OH)}-S[dDab]D(X1)K[Dab][aThr][Dhb][Asp(3S-OH)][Thr(4-Cl)]; ester 1-C)	–	–	–	–	Active	–
–	–	–	C/C=C1\NC(=O)[C@H]([C@H](C)O)NC(=O)[C@H](CCNC(=O)OCOC(=O)C(C)(C)C)NC(=O)[C@H](CCCCNC(=O)OCOC(=O)C(C)(C)C)NC(=O)[C@H](CC(=O)NC2CC2)NC(=O)[C@@H](CCNC(=O)OCOC(=O)C(C)(C)C)NC(=O)[C@@H](NC(=O)C[C@H](O)CCCCCCCCCCC)COC(=O)[C@H]([C@H](O)CCl)NC(=O)[C@H]([C@H](O)C(=O)O)NC1=O	< 5	–	–	Not toxic	–	–
10 (≈ 8.29 µM)	2.5 (≈ 2.07 µM)	< 0.01	C/C=C1\NC(=O)[C@H]([C@H](C)O)NC(=O)[C@H](CCN)NC(=O)[C@H](CCCCN)NC(=O)[C@H](CC(N)=O)NC(=O)[C@@H](CCN)NC(=O)[C@@H](NC(=O)C[C@H](O)CCCCCCCCCCC)COC(=O)[C@H]([C@H](O)CCl)NC(=O)[C@H]([C@H](O)C(=O)O)NC1=O ({Tetradecanoyl(3R-OH)}-S[dDab]NK[Dab][aThr][Dhb][Asp(3S-OH)][Thr(4-Cl)]; ester 1-C)	–	–	–	–	Active	–
20 (≈ 11.7 µM)	20 (≈ 11.7 µM)	20 (≈ 11.7 µM)	C/C=C1\NC(=O)[C@H]([C@H](C)O)NC(=O)[C@H](CCNC(=O)OCOC(=O)C(C)C)NC(=O)[C@H](CCCCNC(=O)OCOC(=O)C(C)C)NC(=O)[C@H](CC(=O)NC(C)(C)CC)NC(=O)[C@@H](CCNC(=O)OCOC(=O)C(C)C)NC(=O)[C@@H](NC(=O)C[C@H](O)CCCCCCCCCCC)COC(=O)[C@H]([C@H](O)CCl)NC(=O)[C@H]([C@H](O)C(=O)O)NC1=O	–	–	–	Not toxic	–	–

Structure (SMILES)	MIC (Aspergillus fumigatus) [µg/mL]	MIC (Candida albicans) [µg/mL]	MIC (Cryptococcus neoformans [6]) [µg/mL]	ED50 (Mus musculus [1]) [mg/kg]	ED50 (Mus musculus [2]) [mg/kg]	Dose elevation (Mus musculus [3]) [mg/kg]	Toxicity [4]	Toxicity [5]	ED50 (Cryptococcus neoformans [7]) [mg/kg]
C/C=C1\NC(=O)[C@H]([C@H](C)O)NC(=O)[C@H](CCN)NC(=O)[C@H](CCCCN)NC(=O)[C@H](CC(=O)O)NC(=O)[C@@H](CCN)NC(=O)[C@@H](NC(=O)C[C@H](O)CCCCCCCCCCC)COC(=O)[C@H]([C@H](O)CCl)NC(=O)[C@H]([C@H](O)C(=O)O)NC1=O [PSEUDOMYCIN B] ({Tetradecanoyl(3R-OH)}-S[dDab]DK[Dab][aThr][Dhb][Asp(3S-OH)][Thr(4-Cl)]; ester 1-C)	20 (≈ 16.6 µM)	0.625 (≈ 0.517 µM)	0.01 (≈ 0.00828 µM)	–	–	20	–	Active	1.8

— ChEMBL document CHEMBL1134142, “Prodrugs of 3-amido bearing pseudomycin analogues: novel antifungal agents” (Bioorg Med Chem Lett, 2001)
